Measured values published in patent US11179412B2, “Methods of treating conditions involving elevated inflammatory response” (University of Pittsburgh—Of the Commonwealth System of …, priority 2017, dated 2021).
“Also recorded” adds a separate entry of the source.

Key:
[1] = system: IFNβ mRNA in J774A.1 cells; assay: IFNβ mRNA Q-PCR, J774A.1 cells; format: cell-based, mouse; conditions: STING ligands 10 μg/ml, inhibitor 10 μM, 16 hours
Experimental: Total RNA was extracted using QIAGEN RNeasy Plus Kit according to the manufacturer's instructions. First-strand cDNA was synthesized from 1 μg of RNA using the iScript cDNA Synthesis kit (#1708890, Bio-Rad). Briefly, 20 μl reactions were prepared by combining 4 μl iScript Select reaction mix, 2 μl gene-specific enhancer solution, 1 μl reverse transcriptase, 1 μl gene-specific assay pool (20×, 2 μM), and 12 μl RNA diluted in RNase-free water. Quantitative real-time PCR was carried out using synthesized cDNA, primers, and SsoFast EvaGreen Supermix (#172-5204, Bio-Rad). The expression of target genes was calculated using the ddCt method relative to the expression of a house-keeping gene, β-actin. Data shown are the relative quantity (RQ), with RQ of the control cells set to one.

[2] = system: STING signaling (TBK1, IRF3, p65, ALK, EGFR, AKT phosphorylation) in RAW264.7 cells; assay: Western blot of STING pathway protein phosphorylation, RAW264.7; format: cell-based, mouse; conditions: 10 μM
Experimental: For immunoblotting, cells were lysed in Cell Lysis Buffer (#9803, Cell Signaling Technology) with protease inhibitor cocktail (Promega), phosphatase inhibitor cocktail (Sigma), and 1 mM Na3VO4 (70). Cleared lysates were resolved by SDS-PAGE (#3450124, Bio-Rad) and then transferred onto PVDF membranes (#1704273, Bio-Rad). The membranes were blocked with Tris-buffered saline Tween 20 (TBST) containing 5% skim milk for 1 h at room temperature and then incubated with the indicated primary antibodies (1:1000-1:5000) overnight at 4° C. After being washed with TBST, the membranes were incubated with an HRP-linked anti-mouse IgG secondary antibody (#7076, Cell Signaling Technology) or HRP-linked anti-rabbit IgG secondary antibody (#7074, Cell Signaling Technology) for 1 h at room temperature. The membranes were washed three times in TBST and then visualized and analyzed with a ChemiDoc Touch Imaging System (#1708370, Bio-Rad). The intensities of bands were analyzed with Image Lab software.

[3] = target: T1, interaction between ALK and EGFR (Mus musculus, UniProt P97793+Q01279); assay: IP analysis of the interaction between ALK and EGFR, iBMDMs; format: cell-based; conditions: 3′3′-cGAMP or c-di-AMP 10 μg/ml, 16 hours, 10 μM
T1 construct: endogenous in cells; host or cells: iBMDMs
Experimental: Concentrations of proteins in the supernatant were determined by bicinchoninic acid assay. […] Following incubation, agarose/sepharose beads were washed extensively with PBS and proteins were eluted by boiling in 2× sodium dodecyl sulfate (SDS) sample buffer before SDS-PAGE electrophoresis.

[4] = target: T2, interaction between ALK and EGFR (Homo sapiens, UniProt P00533+Q9UM73); assay: IP analysis of the interaction between ALK and EGFR, THP1; format: cell-based; conditions: 3′3′-cGAMP or c-di-AMP 10 μg/ml, 16 hours, 10 μM
T2 construct: endogenous in cells; host or cells: THP1 cells
Experimental: For immunoprecipitation, cells were lysed at 4° C. in ice-cold modified radioimmunoprecipitation lysis buffer (#9806, Cell Signaling Technology) and cell lysates were cleared by centrifugation (12,000 g, 10 min). Concentrations of proteins in the supernatant were determined by bicinchoninic acid assay. Prior to immunoprecipitation, samples containing equal amounts of proteins were pre-cleared with Protein A/G agarose/sepharose beads (#20423, Thermo Fisher Scientific Inc.) (4° C., 3 h) and subsequently incubated with various irrelevant IgG or anti-ALK (#ab190934, Abcam) or anti-EGFR antibodies (#2232S, Cell Signaling Technology) in the presence of Protein A/G agarose/sepharose beads overnight at 4° C. with gentle shaking. Following incubation, agarose/sepharose beads were washed extensively with PBS and proteins were eluted by boiling in 2× sodium dodecyl sulfate (SDS) sample buffer before SDS-PAGE electrophoresis.

[5] = system: CLP-induced polymicrobial sepsis in C57BL/6J mice; assay: CLP model of polymicrobial sepsis; format: in vivo, mouse
Experimental: sepsis was induced in male or female C57BL/6J mice (eight- to 10-weeks old, 22 to 26 g) using a surgical procedure as previously described (68). Briefly, anesthesia was induced with ketamine (80-100 mg/kg/i.p.) and xylazine (10-12.5 mg/kg/i.p.). A small midline abdominal incision was made and the cecum was exteriorized and ligated with 4-0 silk immediately distal to the ileocecal valve without causing intestinal obstruction. The cecum was then punctured twice with a 17-27-gauge needle. The abdomen was closed in two layers and mice were injected subcutaneously with 1 ml Ringer's solution including analgesia (0.05 mg/kg buprenorphine). […]
(§1) Biochemical measurements of tissue enzymes (CK, AMYL, BUN, and ALT) in serum were performed using the IDEXX Catalyst Dx Chemistry Analyzer according to the manufacturer's protocol.
(§2) Tissues were embedded in optimum cutting temperature cryomedium (Sakura Finetek, Zoeterwoude, the Netherlands) and cut into 4 μm sections. The deparaffinized sections were then stained using the standard H&E method. The stained slides were observed using an EVOS FL Auto Cell Imaging System (Invitrogen), five fields per section and three sections per sample.

[6] = system: LPS-induced endotoxemia in C57BL/6J mice; assay: Endotoxemia model (LPS); format: in vivo, mouse
Experimental: LPS (Escherichia coli […], 10 mg/kg, #L4391, Sigma) was dissolved in PBS. Male or female C57BL/6J mice (eight- to 10-weeks old, 22 to 26 g weight) received a single oral dose of LDK378 (20 mg/kg) or vehicle, then an infusion of LPS (10 mg/kg, intraperitoneally) 60 minutes later. Mice were re-treated with LDK378 or vehicle six, 12, and 24 hours after LPS infusion.
as §1, §2

[7] = LPS 10 mg/kg, LDK378 20 mg/kg, 24 hours

T2 sequence (Q9UM73 19-1620): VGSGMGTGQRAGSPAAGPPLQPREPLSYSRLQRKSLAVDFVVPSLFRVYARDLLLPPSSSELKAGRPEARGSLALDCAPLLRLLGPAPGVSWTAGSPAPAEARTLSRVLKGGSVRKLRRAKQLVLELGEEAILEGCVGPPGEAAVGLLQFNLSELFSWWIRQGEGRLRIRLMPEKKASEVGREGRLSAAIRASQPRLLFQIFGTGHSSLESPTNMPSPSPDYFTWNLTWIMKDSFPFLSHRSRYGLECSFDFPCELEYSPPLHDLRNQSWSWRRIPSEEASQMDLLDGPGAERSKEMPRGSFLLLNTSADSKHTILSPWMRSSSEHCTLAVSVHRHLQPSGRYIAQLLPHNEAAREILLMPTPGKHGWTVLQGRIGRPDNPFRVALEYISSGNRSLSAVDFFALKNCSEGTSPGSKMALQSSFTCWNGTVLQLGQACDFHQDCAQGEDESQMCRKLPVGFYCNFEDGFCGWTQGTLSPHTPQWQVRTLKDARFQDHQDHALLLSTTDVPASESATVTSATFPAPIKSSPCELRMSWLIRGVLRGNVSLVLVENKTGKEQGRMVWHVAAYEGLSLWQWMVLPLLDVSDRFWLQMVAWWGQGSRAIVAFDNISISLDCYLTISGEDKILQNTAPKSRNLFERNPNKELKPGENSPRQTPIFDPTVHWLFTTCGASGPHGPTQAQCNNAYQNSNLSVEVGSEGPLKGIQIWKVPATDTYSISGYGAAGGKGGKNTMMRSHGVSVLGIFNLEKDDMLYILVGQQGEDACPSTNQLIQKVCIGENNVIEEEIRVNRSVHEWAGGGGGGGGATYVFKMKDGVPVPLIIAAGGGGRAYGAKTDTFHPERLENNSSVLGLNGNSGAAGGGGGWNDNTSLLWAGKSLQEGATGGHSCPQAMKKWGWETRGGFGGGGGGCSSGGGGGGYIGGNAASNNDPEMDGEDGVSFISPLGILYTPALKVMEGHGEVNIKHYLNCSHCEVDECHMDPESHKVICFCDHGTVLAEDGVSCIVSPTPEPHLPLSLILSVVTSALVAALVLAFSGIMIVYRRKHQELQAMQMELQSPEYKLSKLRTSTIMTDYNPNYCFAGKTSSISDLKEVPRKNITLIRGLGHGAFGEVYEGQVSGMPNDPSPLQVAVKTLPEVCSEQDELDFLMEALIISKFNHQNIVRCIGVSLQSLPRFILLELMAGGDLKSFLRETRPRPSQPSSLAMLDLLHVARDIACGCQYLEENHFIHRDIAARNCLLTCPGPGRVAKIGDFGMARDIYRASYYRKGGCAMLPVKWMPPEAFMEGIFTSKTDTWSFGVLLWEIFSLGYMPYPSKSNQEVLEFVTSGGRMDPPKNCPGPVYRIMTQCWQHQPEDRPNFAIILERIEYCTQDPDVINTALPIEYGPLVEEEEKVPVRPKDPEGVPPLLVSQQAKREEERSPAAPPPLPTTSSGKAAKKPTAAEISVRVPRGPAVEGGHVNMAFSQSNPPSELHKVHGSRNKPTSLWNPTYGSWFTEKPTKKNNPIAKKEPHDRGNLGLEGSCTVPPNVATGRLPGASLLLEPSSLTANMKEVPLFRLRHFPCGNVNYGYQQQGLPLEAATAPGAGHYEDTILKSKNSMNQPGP
T2 sequence (P00533 25-1210): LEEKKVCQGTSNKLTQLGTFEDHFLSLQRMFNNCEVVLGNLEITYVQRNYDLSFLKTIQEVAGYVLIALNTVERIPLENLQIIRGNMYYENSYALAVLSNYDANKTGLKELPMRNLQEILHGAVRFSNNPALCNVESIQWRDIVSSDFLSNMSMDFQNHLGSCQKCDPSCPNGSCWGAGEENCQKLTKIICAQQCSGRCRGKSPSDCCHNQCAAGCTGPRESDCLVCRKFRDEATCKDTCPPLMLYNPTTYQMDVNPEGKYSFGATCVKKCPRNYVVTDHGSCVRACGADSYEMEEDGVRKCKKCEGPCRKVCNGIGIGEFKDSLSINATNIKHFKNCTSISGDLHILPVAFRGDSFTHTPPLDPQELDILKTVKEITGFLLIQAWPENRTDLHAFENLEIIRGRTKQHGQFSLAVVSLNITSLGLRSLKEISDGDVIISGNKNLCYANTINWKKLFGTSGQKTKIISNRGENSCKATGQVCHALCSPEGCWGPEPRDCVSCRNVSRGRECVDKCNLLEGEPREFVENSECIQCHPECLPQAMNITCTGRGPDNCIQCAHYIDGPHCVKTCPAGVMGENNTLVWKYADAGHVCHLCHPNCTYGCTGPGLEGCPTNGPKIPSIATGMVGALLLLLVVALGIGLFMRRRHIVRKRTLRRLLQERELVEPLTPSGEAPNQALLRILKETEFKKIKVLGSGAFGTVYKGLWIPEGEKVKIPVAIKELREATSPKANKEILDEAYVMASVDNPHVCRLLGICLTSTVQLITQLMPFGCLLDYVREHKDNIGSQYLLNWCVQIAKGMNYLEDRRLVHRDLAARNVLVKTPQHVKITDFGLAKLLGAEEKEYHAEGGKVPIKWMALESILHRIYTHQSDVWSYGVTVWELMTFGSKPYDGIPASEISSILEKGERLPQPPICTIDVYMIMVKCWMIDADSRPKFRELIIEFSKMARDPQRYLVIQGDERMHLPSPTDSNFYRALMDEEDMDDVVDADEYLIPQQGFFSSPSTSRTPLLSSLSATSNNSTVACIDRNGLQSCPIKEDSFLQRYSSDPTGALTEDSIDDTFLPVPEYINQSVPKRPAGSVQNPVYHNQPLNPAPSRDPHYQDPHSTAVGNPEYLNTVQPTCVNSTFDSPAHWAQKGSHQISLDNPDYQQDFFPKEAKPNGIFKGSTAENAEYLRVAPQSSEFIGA

SMILES: Cc1cc(Nc2ncc(Cl)c(Nc3ccccc3S(=O)(=O)C(C)C)n2)c(OC(C)C)cc1C1CCNCC1 [LDK378, 5-chloro-N^2-(2-isopropoxy-5-methyl-4-(piperidin-4-yl)phenyl)-N^4-[2-(propane-2-sulfonyl)-phenyl]-pyrimidine-2,4-diamine]
- STING ligand-induced IFNβ mRNA expression [1]: attenuation
- 3′3′-cGAMP-induced p-TBK1 ([2]; 3′3′-cGAMP 10 μg/ml, three to 16 hours): time-dependently reduced
- STING ligand-induced phosphorylation of TBK1, IRF3, and p65 ([2]; 3′3′-cGAMP or c-di-AMP 10 μg/ml, 16 hours): diminished
- 3′3′-cGAMP-, c-di-AMP-, and DMXAA-induced p-IRF3 and p-p65 ([2]; ligand 10 μg/ml): inhibited
- c-di-AMP- or DMXAA-induced p-TBK1 ([2]; ligand 10 μg/ml, 16 hours): inhibited
- 3′3′-cGAMP- or c-di-AMP-induced phosphorylation of ALK, EGFR, and AKT ([2]; ligand 10 μg/ml, 16 hours): attenuated
- interaction between ALK and EGFR [3]: reduced
- interaction between ALK and EGFR [4]: reduced
- CLP-induced lethality (animal death) ([5]; B6 mice, CLP 22-gauge needle, LDK378 20 mg/kg, intraperitoneally (i.p.), 2, 24, 48, and 72 hours after CLP, 20 mg/kg): conferred protection against lethality; also recorded: conferred significant protection; also recorded: prevented
- protection of STING-deficient mice in high-grade sepsis ([5]; CLP 17 G needle, STING-deficient mice): conferred further protection
- organ dysfunction by serum tissue enzymes (CK, AMYL, BUN, ALT) ([5]; CLP 22-gauge needle, LDK378 20 mg/kg, day 2-7): protective effects
- CLP-induced TNFα, IFNβ, MCP1, and IL-7 mRNA expression ([5]; CLP 22-gauge needle, LDK378 20 mg/kg, day 3): reduced
- CLP-induced tissue injury (H&E; lung, small intestine, other tissues) ([5]; CLP 22-gauge needle, LDK378 20 mg/kg, day 3, 20 mg/kg): reduced injury; also recorded: prevented
- top five downregulated circulating immune chemical mediators compared with control group ([5]; CLP 22-gauge needle, serum, day 3): IL-10, serpin E1, serpin F1, TIM-1, and CXCL2
- animal survival in low-, middle-, and high-grade sepsis models ([5]; CLP with 27 G, 22 G, 17 G needles, B6 mice): prolonged animal survival
- CLP-induced cytokine systemic release and accumulation in the serum ([5]; serum antibody array, CLP 22-gauge needle, LDK378 20 mg/kg, day 3): reduced
- endotoxemic lethality (LPS-induced animal death) ([6]; LPS 10 mg/kg i.p., LDK378 20 mg/kg): promoted similar protection; also recorded: conferred significant protection; also recorded: prevented
- organ dysfunction (serum enzyme activity) ([6]; LPS 10 mg/kg, LDK378 20 mg/kg, 12-48 hours): promoted similar protection
- endotoxemia-induced tissue injury (H&E) [6, 7]: promoted similar protection; also recorded: prevented
- proinflammatory cytokine expression (mRNA) [6, 7]: promoted similar protection
- proinflammatory cytokine release (serum antibody array) [6, 7]: promoted similar protection
- top five downregulated circulating immune chemical mediators compared with control group ([6]; LPS 10 mg/kg, serum, 24 hours): EGF, CD14, CXCL1, endoglin, and CCL22
